Values belong to the compound of their own block, whether it stands above or below them.
Experiments:
JAK3 [1] = target: T1, JAK3 (Homo sapiens, UniProt P52333); experiment: Cell-based assay on Janus kinase inhibitors, JAK3 (GI50)
T1 sequence (P52333 1-1124): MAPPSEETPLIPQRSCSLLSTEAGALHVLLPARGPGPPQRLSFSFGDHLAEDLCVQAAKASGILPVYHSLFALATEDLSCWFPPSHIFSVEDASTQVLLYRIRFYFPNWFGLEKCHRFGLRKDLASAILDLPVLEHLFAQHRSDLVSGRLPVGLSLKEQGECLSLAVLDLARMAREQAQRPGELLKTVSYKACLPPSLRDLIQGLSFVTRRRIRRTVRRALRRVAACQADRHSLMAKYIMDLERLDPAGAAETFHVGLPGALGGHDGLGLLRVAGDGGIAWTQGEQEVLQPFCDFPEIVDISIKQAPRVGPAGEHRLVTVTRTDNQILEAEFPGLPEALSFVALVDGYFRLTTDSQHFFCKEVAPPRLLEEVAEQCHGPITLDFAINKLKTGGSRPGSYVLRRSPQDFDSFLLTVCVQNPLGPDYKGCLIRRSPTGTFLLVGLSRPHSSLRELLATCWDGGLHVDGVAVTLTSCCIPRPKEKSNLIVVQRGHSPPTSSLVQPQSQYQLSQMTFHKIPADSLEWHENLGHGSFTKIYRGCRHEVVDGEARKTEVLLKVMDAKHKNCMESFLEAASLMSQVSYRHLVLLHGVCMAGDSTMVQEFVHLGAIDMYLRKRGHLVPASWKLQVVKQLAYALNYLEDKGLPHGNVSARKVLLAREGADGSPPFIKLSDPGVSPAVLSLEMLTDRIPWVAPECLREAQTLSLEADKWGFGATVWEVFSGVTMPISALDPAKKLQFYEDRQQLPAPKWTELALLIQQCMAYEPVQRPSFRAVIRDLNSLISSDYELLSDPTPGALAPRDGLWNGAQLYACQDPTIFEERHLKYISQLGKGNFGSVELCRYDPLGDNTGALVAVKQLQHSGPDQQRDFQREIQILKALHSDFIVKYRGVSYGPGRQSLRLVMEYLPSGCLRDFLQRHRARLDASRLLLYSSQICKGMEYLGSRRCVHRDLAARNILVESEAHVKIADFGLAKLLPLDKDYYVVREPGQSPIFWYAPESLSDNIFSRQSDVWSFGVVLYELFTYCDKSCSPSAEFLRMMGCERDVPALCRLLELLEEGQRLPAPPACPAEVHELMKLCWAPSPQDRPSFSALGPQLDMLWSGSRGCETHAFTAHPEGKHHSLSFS

TYK2 = TYK2 (Homo sapiens, UniProt P29597); experiment: TYK2 IC50 measurement; assay type: biochemical
JAK2 = JAK2 (Homo sapiens, UniProt O60674); experiment: JAK2 IC50 measurement; assay type: biochemical
JAK3 [2] = target: T1, JAK3; experiment: JAK3 IC50 measurement; assay type: biochemical
JAK1 = JAK1 (Homo sapiens, UniProt P23458); experiment: JAK1 IC50 measurement; assay type: biochemical
JAK1, sequence (P23458 whole entry): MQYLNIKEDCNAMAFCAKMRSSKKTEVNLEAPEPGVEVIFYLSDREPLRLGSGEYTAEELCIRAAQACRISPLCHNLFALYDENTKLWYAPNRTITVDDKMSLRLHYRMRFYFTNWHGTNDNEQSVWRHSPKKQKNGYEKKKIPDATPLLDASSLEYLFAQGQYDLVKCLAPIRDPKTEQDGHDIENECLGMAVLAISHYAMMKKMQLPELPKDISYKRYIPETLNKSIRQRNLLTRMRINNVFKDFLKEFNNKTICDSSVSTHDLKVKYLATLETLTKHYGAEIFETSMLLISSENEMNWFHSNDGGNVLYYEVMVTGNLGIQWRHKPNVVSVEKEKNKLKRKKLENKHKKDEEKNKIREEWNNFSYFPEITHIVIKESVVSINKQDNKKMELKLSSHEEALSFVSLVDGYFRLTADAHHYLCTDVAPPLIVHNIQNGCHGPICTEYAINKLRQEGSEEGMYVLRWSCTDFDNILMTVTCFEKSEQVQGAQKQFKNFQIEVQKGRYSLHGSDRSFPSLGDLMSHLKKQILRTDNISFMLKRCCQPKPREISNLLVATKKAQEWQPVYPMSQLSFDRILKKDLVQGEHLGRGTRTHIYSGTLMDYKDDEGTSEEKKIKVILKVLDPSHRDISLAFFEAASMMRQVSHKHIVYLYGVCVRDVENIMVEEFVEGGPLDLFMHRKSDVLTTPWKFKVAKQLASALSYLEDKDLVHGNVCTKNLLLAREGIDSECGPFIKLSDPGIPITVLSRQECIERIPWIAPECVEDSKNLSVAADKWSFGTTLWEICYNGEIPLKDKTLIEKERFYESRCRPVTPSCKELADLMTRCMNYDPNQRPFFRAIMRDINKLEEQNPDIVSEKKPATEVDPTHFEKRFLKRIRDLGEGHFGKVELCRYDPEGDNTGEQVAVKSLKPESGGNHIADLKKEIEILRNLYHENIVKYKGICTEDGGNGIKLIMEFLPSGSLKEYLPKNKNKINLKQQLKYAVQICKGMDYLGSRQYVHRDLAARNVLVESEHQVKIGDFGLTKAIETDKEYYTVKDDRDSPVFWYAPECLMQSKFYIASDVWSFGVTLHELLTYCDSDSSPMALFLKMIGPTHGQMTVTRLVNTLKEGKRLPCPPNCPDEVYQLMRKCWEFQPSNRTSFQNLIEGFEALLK

TYK2, sequence (P29597 whole entry): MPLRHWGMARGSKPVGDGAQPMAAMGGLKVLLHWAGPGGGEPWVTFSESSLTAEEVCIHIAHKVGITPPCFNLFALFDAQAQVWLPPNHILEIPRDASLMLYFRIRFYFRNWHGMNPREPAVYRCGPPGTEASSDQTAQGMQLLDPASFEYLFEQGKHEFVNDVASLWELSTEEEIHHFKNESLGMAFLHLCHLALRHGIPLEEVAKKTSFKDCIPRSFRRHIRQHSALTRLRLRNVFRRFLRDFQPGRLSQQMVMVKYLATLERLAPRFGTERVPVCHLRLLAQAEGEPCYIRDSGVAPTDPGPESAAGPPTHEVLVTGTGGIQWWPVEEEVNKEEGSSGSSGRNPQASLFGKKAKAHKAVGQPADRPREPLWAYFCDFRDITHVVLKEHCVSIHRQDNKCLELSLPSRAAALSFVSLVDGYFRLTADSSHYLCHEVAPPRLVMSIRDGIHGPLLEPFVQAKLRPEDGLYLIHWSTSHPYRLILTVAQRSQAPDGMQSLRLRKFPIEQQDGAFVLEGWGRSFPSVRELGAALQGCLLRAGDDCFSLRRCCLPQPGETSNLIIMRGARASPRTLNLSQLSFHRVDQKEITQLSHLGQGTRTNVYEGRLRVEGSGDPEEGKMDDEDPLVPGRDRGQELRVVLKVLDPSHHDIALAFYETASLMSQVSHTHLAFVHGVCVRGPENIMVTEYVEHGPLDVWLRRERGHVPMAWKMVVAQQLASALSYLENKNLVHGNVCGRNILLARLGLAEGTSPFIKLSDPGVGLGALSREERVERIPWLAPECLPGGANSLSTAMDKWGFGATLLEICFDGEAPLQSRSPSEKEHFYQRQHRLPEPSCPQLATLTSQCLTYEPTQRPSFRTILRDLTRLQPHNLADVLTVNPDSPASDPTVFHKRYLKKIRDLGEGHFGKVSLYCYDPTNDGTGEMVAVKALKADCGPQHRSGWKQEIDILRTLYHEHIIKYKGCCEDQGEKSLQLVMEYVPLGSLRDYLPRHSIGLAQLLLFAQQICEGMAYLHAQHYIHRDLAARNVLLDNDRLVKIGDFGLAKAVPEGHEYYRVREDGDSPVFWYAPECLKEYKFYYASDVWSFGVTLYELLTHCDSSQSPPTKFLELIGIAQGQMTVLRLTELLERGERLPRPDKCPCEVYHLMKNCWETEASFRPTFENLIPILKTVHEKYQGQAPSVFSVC
JAK2, sequence (O60674 whole entry): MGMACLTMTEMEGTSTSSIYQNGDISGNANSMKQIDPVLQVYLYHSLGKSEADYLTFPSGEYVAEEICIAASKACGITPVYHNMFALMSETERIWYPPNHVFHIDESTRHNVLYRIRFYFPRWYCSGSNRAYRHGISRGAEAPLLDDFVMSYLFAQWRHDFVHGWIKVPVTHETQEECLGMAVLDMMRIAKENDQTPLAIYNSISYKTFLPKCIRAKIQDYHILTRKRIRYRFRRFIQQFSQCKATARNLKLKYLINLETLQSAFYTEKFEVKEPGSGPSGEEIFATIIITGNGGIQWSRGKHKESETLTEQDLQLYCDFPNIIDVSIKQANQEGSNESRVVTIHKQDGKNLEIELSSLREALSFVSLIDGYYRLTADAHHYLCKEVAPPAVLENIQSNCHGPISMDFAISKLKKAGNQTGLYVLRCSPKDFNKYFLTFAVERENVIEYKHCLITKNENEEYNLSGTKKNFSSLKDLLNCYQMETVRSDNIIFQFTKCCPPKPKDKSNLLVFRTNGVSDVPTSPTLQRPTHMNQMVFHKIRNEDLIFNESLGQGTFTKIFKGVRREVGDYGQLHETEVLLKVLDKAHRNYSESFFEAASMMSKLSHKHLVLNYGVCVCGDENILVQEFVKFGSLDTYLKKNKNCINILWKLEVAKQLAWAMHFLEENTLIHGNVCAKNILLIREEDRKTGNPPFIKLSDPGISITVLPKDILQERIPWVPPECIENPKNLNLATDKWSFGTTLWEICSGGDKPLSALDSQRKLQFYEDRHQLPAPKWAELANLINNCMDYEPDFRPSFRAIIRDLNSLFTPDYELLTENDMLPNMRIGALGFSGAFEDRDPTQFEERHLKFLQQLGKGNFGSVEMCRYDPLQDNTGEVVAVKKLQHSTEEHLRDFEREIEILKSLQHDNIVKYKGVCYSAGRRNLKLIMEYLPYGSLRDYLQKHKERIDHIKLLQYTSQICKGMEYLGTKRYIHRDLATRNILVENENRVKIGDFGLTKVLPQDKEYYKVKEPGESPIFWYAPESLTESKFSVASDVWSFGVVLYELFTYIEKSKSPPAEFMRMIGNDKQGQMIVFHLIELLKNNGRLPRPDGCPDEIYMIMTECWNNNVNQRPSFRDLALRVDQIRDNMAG

Structure (SMILES): CNC(=O)c1cnc2[nH]ccc2c1NC1CC2CCC(C1)N2Cc1cccc(C#N)c1 (stereo not drawn) [Compound 17f, 4-((8-(3-Cyanobenzyl)-8-azabicyclo[3.2.1]octan-3-yl)amino)-N-methyl-1H-pyrrolo[2,3-b]pyridine-5-carboxamide]
IC50 (TYK2): 0.0922 µM
IC50 (JAK2): 0.0588 µM
IC50 (JAK3 [2]): 0.0447 µM

Structure (SMILES): CNC(=O)c1cnc2[nH]ccc2c1NC1CC(NCc2ccc(Cl)cc2)C1 (stereo not drawn) [Compound 16c, 4-((3-((4-Chlorobenzyl)amino)cyclobutyl)amino)-N-methyl-1H-pyrrolo[2,3-b]pyridine-5-carboxamide]
IC50 (JAK1): 0.0138 µM

Structure (SMILES): CNC(=O)c1cnc2[nH]ccc2c1NC1CC(NCc2cccc(Cl)c2)C1 (stereo not drawn) [Compound 16b, 4-((3-((3-Chlorobenzyl)amino)cyclobutyl)amino)-N-methyl-1H-pyrrolo[2,3-b]pyridine-5-carboxamide]
IC50 (JAK1): 0.016 µM

Structure (SMILES): CNC(=O)c1cnc2[nH]ccc2c1N[C@H]1CCCN(Cc2cccc(Cl)c2)C1 [Compound 18a, (S)-4-((1-(3-Chlorobenzyl)piperidin-3-yl)amino)-N-methyl-1H-pyrrolo[2,3-b]pyridine-5-carboxamide]
IC50 (JAK1): 1.87 µM

Structure (SMILES): CNC(=O)c1cnc2[nH]ccc2c1NC1CC(NCc2ccccc2)C1 (stereo not drawn) [Compound 16a, 4-((3-(Benzylamino)cyclobutyl)amino)-N-methyl-1H-pyrrolo[2,3-b]pyridine-5-carboxamide]
IC50 (JAK1): 0.13 µM

Next, values leading:

GI50 (JAK3 [1]): 8.24 µM
Structure (SMILES): CNC(=O)c1cnc2[nH]ccc2c1N[C@@H]1CCN(Cc2cccc(Cl)c2)[C@@H](C)C1 (relative stereo) [Compound 20b, 4-((trans-1-(3-Chlorobenzyl)-2-methylpiperidin-4-yl)amino)-N-methyl-11H-pyrrolo[2,3-b]pyridine-5-carboxamide]

IC50 (TYK2): 1.79 µM
Selectivity for JAK1 TYK2/JAK1 (TYK2): 2.56
IC50 (JAK1): 0.697 µM
IC50 (JAK2): 0.533 µM
Selectivity for JAK1 JAK2/JAK1 (JAK2): 0.764
IC50 (JAK3 [2]): 3.43 µM
Selectivity for JAK1 JAK3/JAK1 (JAK3 [2]; ratio of IC50 values): 4.92
Structure (SMILES): CNC(=O)c1cnc2[nH]ccc2c1N[C@H]1CCCN(Cc2cccc(OC)c2)C1 [Compound 18b, (S)-4-((1-(3-Methoxybenzyl)piperidin-3-yl)amino)-N-methyl-1H-pyrrolo[2,3-b]pyridine-5-carboxamide]
